This note sets out measurements from US8828678B2, “Self-immolative probes for enzyme activity detection” (Enzo Life Sciences, Inc., priority 2010, dated 2014).

For one assay, the system named is hypoxic HeLa cells. As to the kind of experiment: Detection of hypoxia with hypoxia markers using fluorescence microscopy. Format: cell-based, human. The settings on record: 5 μM, 3.5 h, chemical induction of hypoxia (CoCl2, DFO, DMOG) or anoxic treatment, FITC filter. The procedure:
The human cervical adenocarcinoma epithelial cell line HeLa, U-2 OS human bone osteosarcoma cell line and hamster ovary CHO K1 cell line were obtained from ATTC. HeLa cells were routinely cultured in Eagle's Minimum Essential Medium with low glucose (ATCC), supplemented with 10% fetal bovine serum (ATCC) and 100 U/ml penicillin, 100 μg/ml streptomycin (Sigma-Aldrich, St. Louis, Mo.). U-2 OS cells were routinely cultured in McCoy's 5a Modified Medium (ATCC), supplemented with 10% fetal bovine serum heat (ATCC) and 100 U/ml penicillin+100 μg/ml streptomycin (Sigma-Aldrich). […]
The day before the experiment, the cells were seeded on 4-well microscope slides (Cel-Line™ Brand, Portsmouth, N.H.) at a density 1×10^4 cells/well (2×10^4 cells/cm^2). […] Post-treatment, the slides were washed twice with PBS, coverslipped and visualized using an Olympus BX-51 fluorescence microscope (FITC filter set, 490ex/525em).
In parallel, the hypoxia cellular state was detected using the hypoxia detecting reagent pimonidazole (Varia et al., 1998; Young, 1977). […] Slides were stained with a 1:100 dilution of FITC-MAb1 against pimonidazole (HP-1 kit from Hypoxyprobe) for 45 min at 4° C., washed twice with PBS, coverslipped and visualized using an Olympus BX-51 fluorescence microscope equipped with an FITC filter set (490ex/525em). […]

The next assay has as its system Jurkat cells. As to the kind of experiment: Detection of hypoxia using flow cytometry. Format: cell-based, human. The following applies: 5 μM CD-1, 1 μM CD-6, versus vehicle-treated loaded cells. The procedure:
HeLa and U-2 OS cells were cultured as described in Example 7. Human Jurkat T-cell leukemia cells (the A3 subclone) was obtained from ATCC and routinely cultured in RPMI-1640 medium (ATCC) supplemented with 10% fetal bovine serum (ATCC) and 100 U/ml penicillin+100 μg/ml streptomycin (Sigma-Aldrich). Cell cultures were maintained in an incubator at 37° C., with 5% CO2 atmosphere. CD-1, CD-4 and CD-6 self-immolative hypoxia probes were prepared as described in Example 8. All hypoxia inducers stocks were prepared as described in Example 7.
The day before the experiment, HeLa and U-2 OS cells were seeded in 6-well tissue culture plates at a density 5×10^5 cells/well. […] Post-treatment, the adherent cells (HeLa and U-2 OS) were collected by trypsinization, re-suspended in 0.5 mL of fresh PBS and analyzed using flow cytometry. Jurkat cells were analyzed without washing.
Flow cytometry experiments were performed using a FACS Calibur benchtop flow cytometer (BD Biosciences) equipped with a blue (488 nm) laser, and the fluorescence was recorded in the FITC (530/30 filter), PE (585/42 filter) and PerCP (670 LP filter) channels. Hypoxic cells were detected by detecting increases in fluorescence. The degree of hypoxia (Khyp) can be quantified by using Kolmogorov-Smirnov statistics (Young, 1977) or the following formula: Khyp=(MFIhyp−MFIcon)/MFIhyp, […]
Background: A flow cytometer gives signals particle by particle.

Turning to `O=C(Nc1ccc2c(c1)Oc1cc(NC(=O)N3CCOCC3)ccc1C21OC(=O)c2ccccc21)OCc1ccc([N+](=O)[O-])cc1` (centres unmarked) [CD-1], in the assay on hypoxic HeLa cells, the “fluorescence signal in hypoxic HeLa cells” value was “bright fluorescence signal”. For the same compound, the “fluorescence in Jurkat cells treated with chemical hypoxia inducers or subjected to anoxia” value in the assay with Jurkat cells is reported as “fluorescence increase”.
